Measurements as given in ChEMBL document CHEMBL1201862, “PubChem BioAssay data set” (2004).
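Values below derive from 48-hour exposures of cells grown in 96-well plates, with endpoints linearly interpolated between the two concentrations bracketing the appropriate inhibition level. Abbreviation: GI50, concentration required for 50% inhibition of growth.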 The source made the active and inactive calls. Cut-off read from the data, not from the text of the source: active = GI50 up to about 1.1 µM and inactive = higher.

What was measured:
Experiment in all cases: NCI anticancer screen, dose series, 48 h
SW-620 = system: SW-620
NCI-H522 = system: NCI-H522
IGROV-1 = system: IGROV-1
A549 = system: A549
786-0 = system: 786-0
RPMI-8226 = system: RPMI-8226
CAKI-1 = system: CAKI-1
UACC-257 = system: UACC-257
UACC-62 = system: UACC-62
SK-MEL-28 = system: SK-MEL-28
MOLT-4 = system: MOLT-4
PC-3 = system: PC-3
HOP-92 = system: HOP-92
T47D = system: T47D
NCI-H23 = system: NCI-H23
Hs-578T = system: Hs-578T
OVCAR-8 = system: OVCAR-8
HCT-15 = system: HCT-15
RXF 393 = system: RXF 393
U-251 = system: U-251
K562 = system: K562
HL-60 = system: HL-60
BT-549 = system: BT-549
MCF7 = system: MCF7
SK-MEL-2 = system: SK-MEL-2
NCI-H460 = system: NCI-H460
MDA-N = system: MDA-N
OVCAR-4 = system: OVCAR-4
UO-31 = system: UO-31
HCT-116 = system: HCT-116
HOP-62 = system: HOP-62
EKVX = system: EKVX
SNB-75 = system: SNB-75
DU-145 = system: DU-145
OVCAR-5 = system: OVCAR-5
MDA-MB-435 = system: MDA-MB-435
SF-539 = system: SF-539
ACHN = system: ACHN
KM12 = system: KM12
MDA-MB-231 = system: MDA-MB-231
NCI/ADR-RES = system: NCI/ADR-RES
SNB-19 = system: SNB-19
HCC 2998 = system: HCC 2998
A498 = system: A498
TK-10 = system: TK-10
HT-29 = system: HT-29
SR = system: SR
SK-OV-3 = system: SK-OV-3
SF-268 = system: SF-268
CCRF-CEM = system: CCRF-CEM
NCI-H226 = system: NCI-H226
OVCAR-3 = system: OVCAR-3
SF-295 = system: SF-295
M14 = system: M14
Malme-3M = system: Malme-3M
SN12C = system: SN12C
SK-MEL-5 = system: SK-MEL-5
COLO 205 = system: COLO 205
LOX IMVI = system: LOX IMVI

Measured: GI50

CC(C)=NNc1ncnc2[nH]cnc12
inactive: SW-620 11.9 µM | NCI-H522 2.86 µM | IGROV-1 7.82 µM | A549 4.89 µM | 786-0 5.83 µM | RPMI-8226 4.83 µM | CAKI-1 3.66 µM | UACC-257 10 µM | UACC-62 2.68 µM | SK-MEL-28 63 µM | MOLT-4 9.06 µM | PC-3 9.04 µM | HOP-92 16.9 µM | T47D 11.2 µM | NCI-H23 29.6 µM | Hs-578T 11.8 µM | OVCAR-8 5.55 µM | RXF 393 6.87 µM | U-251 20.4 µM | K562 > 19.6 µM | HL-60 3.71 µM | BT-549 48.1 µM | MCF7 4.07 µM | SK-MEL-2 3.82 µM | NCI-H460 7.06 µM | MDA-N 8.79 µM | OVCAR-4 9.95 µM | UO-31 3.21 µM | HCT-116 3.71 µM | HOP-62 5.12 µM | EKVX 12.9 µM | SNB-75 18.2 µM | DU-145 3.85 µM | OVCAR-5 4.65 µM | MDA-MB-435 6.87 µM | SF-539 36.4 µM | ACHN 5.7 µM | KM12 5.33 µM | MDA-MB-231 6.95 µM | NCI/ADR-RES 5.01 µM | SNB-19 45.5 µM | HCC 2998 5.04 µM | A498 5.07 µM | TK-10 4.9 µM | HT-29 6.04 µM | SR 4.69 µM | SK-OV-3 3.88 µM | SF-268 7.89 µM | CCRF-CEM 4.9 µM | NCI-H226 12 µM | OVCAR-3 5.78 µM | SF-295 8.55 µM | M14 4.65 µM | Malme-3M 49.7 µM | SN12C 14.5 µM | SK-MEL-5 14.5 µM | COLO 205 5.94 µM | LOX IMVI 4.78 µM
6.01 µM: HCT-15

C=C1CCCC(C)(C)C1CCC1(C)CCC(C(C)C(=O)OC)OO1 (configuration not stated)
15.5 µM: HCT-15
inactive: SW-620 7.6 µM | NCI-H522 3.34 µM | A549 1.28 µM | RPMI-8226 5.56 µM | UACC-257 > 20.2 µM | UACC-62 5.62 µM | SK-MEL-28 20.6 µM | MOLT-4 8.11 µM | PC-3 3.74 µM | T47D 4.32 µM | NCI-H23 3.78 µM | Hs-578T 5.57 µM | OVCAR-8 6.62 µM | RXF 393 4.04 µM | U-251 2.94 µM | K562 8.89 µM | HL-60 2.21 µM | BT-549 4.9 µM | MCF7 > 21.5 µM | SK-MEL-2 10.8 µM | MDA-N 3.73 µM | OVCAR-4 4.9 µM | HCT-116 8.45 µM | EKVX 7.91 µM | SNB-75 3.15 µM | DU-145 4.35 µM | OVCAR-5 6.75 µM | MDA-MB-435 4.05 µM | SF-539 6.3 µM | ACHN 1.27 µM | MDA-MB-231 9.08 µM | NCI/ADR-RES 7.08 µM | SNB-19 9.08 µM | HCC 2998 4.37 µM | A498 5.87 µM | TK-10 4.28 µM | HT-29 2.04 µM | SR 3.02 µM | SK-OV-3 4.4 µM | SF-268 3.57 µM | CCRF-CEM 2.43 µM | NCI-H226 6.18 µM | OVCAR-3 21.8 µM | SF-295 4.48 µM | M14 9.66 µM | Malme-3M > 22.9 µM | SN12C 3.77 µM | SK-MEL-5 5.19 µM | COLO 205 4.92 µM
active: IGROV-1 0.63 µM | 786-0 0.36 µM | CAKI-1 0.383 µM | HOP-92 0.764 µM | NCI-H460 0.908 µM | UO-31 0.748 µM | HOP-62 0.706 µM | KM12 0.948 µM | LOX IMVI 0.471 µM

CN(C)CCNC(=O)c1cccc2nc3c(nc12)-c1ccccc1C3=O
inactive: SW-620 6.43 µM | NCI-H522 13.5 µM | IGROV-1 20.9 µM | A549 12.5 µM | 786-0 8.11 µM | RPMI-8226 7.38 µM | CAKI-1 13.6 µM | UACC-257 13.4 µM | UACC-62 19.1 µM | SK-MEL-28 16 µM | PC-3 17.6 µM | HOP-92 16.4 µM | T47D 12.9 µM | NCI-H23 13.3 µM | Hs-578T 18.5 µM | OVCAR-8 16.4 µM | RXF 393 16.8 µM | U-251 13.4 µM | K562 3.16 µM | HL-60 6.3 µM | BT-549 14.3 µM | MCF7 6.34 µM | SK-MEL-2 17 µM | NCI-H460 4.99 µM | MDA-N 9.89 µM | OVCAR-4 20.8 µM | UO-31 12.1 µM | HCT-116 12.7 µM | HOP-62 6.17 µM | EKVX 22.8 µM | SNB-75 13.8 µM | DU-145 29.9 µM | OVCAR-5 24.8 µM | MDA-MB-435 14.8 µM | SF-539 10.2 µM | ACHN 4.78 µM | KM12 10 µM | MDA-MB-231 7.89 µM | NCI/ADR-RES 12.4 µM | SNB-19 18.3 µM | HCC 2998 15 µM | A498 14.4 µM | TK-10 18.6 µM | HT-29 6.76 µM | SR 1.14 µM | SK-OV-3 26.7 µM | SF-268 11.8 µM | CCRF-CEM 2.56 µM | NCI-H226 14.4 µM | OVCAR-3 16.6 µM | SF-295 17.9 µM | M14 15.8 µM | Malme-3M 9.95 µM | SN12C 11 µM | SK-MEL-5 12.1 µM | COLO 205 17.6 µM | LOX IMVI 2.83 µM
10.3 µM: HCT-15
active: MOLT-4 0.721 µM
